Measurements taken from patent publication US5064817A, “Phospholipase A2 inhibiting compositions and their use” (Yissum Research Development Company of Hebrew University of …, priority 1987, dated 1991).
Values joined by “and” are separate entries in the source; they are usually repeats but may differ in a detail not shown here. Identical values can stand only once.

Assays:
[1] = system: human platelet aggregation; test: Inhibition of human platelet aggregation in platelet-rich plasma; format: cell-based; settings: human PRP
Description: (§1) Platelet-rich plasma (PRP) was obtained from human donors by centrifugation. Platelet aggregation at 37° C. and TXB2 secretion were induced by the addition of an aggregating agent (inducer) as indicated in the table below. Platelet aggregation was determined by measurement of the suspension optical density in a double beam aggregometer. Results are expressed as % of the control aggregation obtained by the addition of the inducer in the absence of an inhibitor. TXB2, secretion to the extracellular medium, was determined by radioimmunoassay. When the test PLI was applied, the PRP was incubated with the inhibitor for 10 min at 37° C., prior to induction of aggregation.

[2] = system: Prostaglandin (PGE2) production in mouse peritoneal macrophages; test: Inhibition of PGE2 production in mouse peritoneal macrophages; format: cell-based; settings: 10^-5 M phorbol-myristate-acetate, 2 hours, repeated lines per PLI type
Description: Peritoneal cells from NMRI mice were obtained by lavage with Dulbeccos MEM. The cells were washed and plated at 2×10^4 /well in Dulbeccos MEM with FCS in 96-well plates. After 2 hours (or overnight) incubation at 37°, the adherent macrophages were washed 3 times. The medium was replaced by Dulbeccos MEM with lactalbumin hydrolysate. Test compounds were suspended in water. One hour later, the macrophages were stimulated with 10^-5 M phorbol-myristate-acetate. Another 2 hours later, PGE2 and LTC4 were measured int he supernatants by radioimmunoassay. The results are expressed as IC50 of PGE2 - and LTC4 -production.

[3] = system: crude phospholipase A2 (extracted from human polymorphonuclear leukocytes); test: Inhibition of phospholipase A2 from human PMN leukocytes (14C-oleate-labelled E. coli substrate); format: biochemical; settings: 37°, 60 min, pH 7.0, 0.5 mmol/l CaCl2
Description: The reaction is stopped by extraction with modified Dole reagent. Free oleic acid is separated on a disposable silicic acid (Kieselgel G 100) column and the radioactivity is determined. Percent inhibition is calculated after subtracting a blank (assay mixture without enzyme).

[4] = system: prostacyclin (6-keto-PGF1 α) production in cultured adrenal capillary endothelial cells; test: Inhibition of prostacyclin production in endothelial cells; format: cell-based; settings: for % Inhibition of prostacyclin production: PLI 1 mg/ml + Bradykinin 1 μM; for 6-keto-PFG1α PROD.: PLI 1 mg/ml + Bradykinin 1 μM (Bradykinin alone 201.9 ± 21.6)
Description: Method: Cultured adrenal capillary endothelial cells were stimulated to produce prostacyclin (6-keto-PGF1 α) by bradykinin in the absence and presence of CMS or HME. The prostacyclin, secreted to the culture medium was determined by radioimmunoassay.

[5] = system: Thromboxane (TXB2) secretion by human platelets; test: Inhibition of thromboxane (TXB2) secretion by human platelets; format: cell-based; settings: human PRP
Description: as §1

[6] = system: PLA2-oedema (purified phospholipase A2 from porcine pancreas, subplantar); test: Inhibition of PLA2-oedema in rats (paw plethysmometry); format: in vivo; settings: rat
Description: By subplantar injection of 200 U PLA2 (ca. 0.3 mg purified phospholipase A2 from porcine pancreas, Boehringer Mannheim) in 100 μl physiological saline into the left hind paw of male or female rats (LEW/TIF, ca. 200 g body weight, 5 animals per group) a localized edema was induced and its intensity was determined plethysmometrically 3 and 5 hours later. Test compounds were suspended in 0.75% methylcellulose and administered i.p. (5 ml/kg) 1 hour prior to the PLA2 injection. The edema-inhibiting effect was expressed as percent inhibition in comparison to vehicle-treated controls.

[7] = system: Serotonin secretion in Rat Basophilic Leukemia (RBL) cells; test: Inhibition of serotonin secretion in RBL cells; format: cell-based; settings: HMS 1.5 mg/ml, ionophore A23187 0.3 μM
Description: Cultured RBL were incubated with tritiated serotonin (10^7 DPM/ml/10^6 cell) for 2 hours, then washed. Serotinin secretion was activated in the absence or presence of HMS (1.5 mg/ml) by the addition of the ionophore A23187 (0.3 μM) for the desired time. The radioactive serotonin accumulated in the culture medium during the activation period was determined. In the absence of HMS, approximately 1.3 and 1.9 DPM×10^5 was excreted in 15 and 30 minutes, respectively, whereas in the presence of the HMS, only about 0.3 DPM×10^5 was secreted in each of these time periods.

[8] = system: adjuvant arthritis (Freunds adjuvant paw swelling); test: Adjuvant arthritis model of inflammation; format: in vivo, rat; settings: for gross signs of toxicity: 70 mg/kg subcutaneously, two week dosing period; for paw diameter (measured with calipers): arthritic animals, by day 14; for paw diameter (measured with calipers) / decrease in paw swelling, injected paw / decrease in paw swelling, noninjected paw: 70 mg/kg subcutaneously day 3 to day 14; for decrease in paw swelling, injected paw / decrease in paw swelling, noninjected paw: arthritic rats, day 14
Description: Two compounds (CMS and HMS) were tested in the adjuvant arthritis model of inflammation. Paw swelling is induced by an injection of Freunds adjuvant into the right hind paw. Systemic inflammation spreads to the controlateral paw within 2 weeks. The compounds were administered subcutaneously from day 3 to day 14 at a dose of 70 mg/kg. […] CMS decreased noninjected paw swelling 51% (P≤0.005) and injected paw swelling 30% (P≤0.001). […] No drug treated group lost weight compared to the arthritic controls.

[9] = system: Phospholipase A2 (PLA2) activity in Rat Basophilic Leukemia (RBL) cells; test: Inhibition of PLA2 activity in RBL cells (C6-NBD-PC hydrolysis); format: cell-based
Description: Cultured RBL cells were incubated with the fluorescent substrate of PLA2 (C6 -NBD-PC) as described by Yedgar et al. (1986) FEBS Letters, 200:165-168. After 1 hour of incubation, the cultures were subjected to lipid extraction and determination of C6 -NBD-PC hydrolysed as previously described.

[10] = line (e), 1 × i.p., dose not given
[11] = 100 mg/kg i.p., 1 hour prior to PLA2
[12] = 1 × 20 mg/kg i.p., 1 hour prior to PLA2
[13] = Epinephrine 0.8 μg/ml, PLI 1.5 mg/ml

Dextranhydrazide-dodecanedioic-phosphatidylserine [Dex-Ac-PS, reference compound]
Aggregation (% of control) ([1]; ADP 2 μg/ml, PLI 3.0 mg/ml): 14 % of control | Aggregation (% of control) ([1]; Epinephrine 0.8 μg/ml, PLI 6.5 mg/ml): 19 % of control | IC50 for PGE2 production [2]: 300 µg/mL and 600 µg/mL | Inhibition of PLA2 from human PMN, IC50 [3]: 720 µg/mL

Hemaccellphosphatidylethanolamine [HME]
Aggregation (% of control) ([1]; ADP 2 μg/ml, PLI 0.70 mg/ml): 6 % of control | Aggregation (% of control) ([1]; Collagen 40 μg/ml, PLI 0.85 mg/ml): 13 % of control | Aggregation (% of control) ([1]; Epinephrine 0.8 μg/ml, PLI 0.75 mg/ml): 9 % of control | % Inhibition of prostacyclin production [4]: 82% | 6-keto-PFG1α PROD. [4]: 36.4 ± 7.2 PG/10^-6 Cells | TXB2 secreted ([5]; ADP 2 μg/ml, PLI 0.70 mg/ml (without PLI 82 ± 4)): 14 ± 7 ng/mL | TXB2 secreted ([5]; Collagen 40 μg/ml, PLI 0.85 mg/ml (without PLI 42 ± 6)): 17 ± 7 ng/mL | % Inhibition of PLA2-oedema, 3 hours [6, 10]: 0% | % Inhibition of PLA2-oedema, 5 hours [6, 10]: 0% | % Inhibition of PLA2-oedema, 3 hours ([6]; line (f), i.p., dose not given): 27% | % Inhibition of PLA2-oedema, 5 hours ([6]; line (f), i.p., dose not given): 25% | % Inhibition of PLA2-oedema, 3 hours ([6]; line (g), i.p., dose not given): 53% | % Inhibition of PLA2-oedema, 5 hours ([6]; line (g), i.p., dose not given): 45%

Hemaccellphosphatidylserine [HMS]
radioactive serotonin secreted to culture medium ([7]; 15 minutes (without HMS approx. 1.3)): about 0.3 DPM×10^5 | radioactive serotonin secreted to culture medium ([7]; 30 minutes (without HMS approx. 1.9)): about 0.3 DPM×10^5 | Aggregation (% of control) ([1]; Epinephrine 0.8 μg/ml, PLI 1.2 mg/ml): 2 % of control | IC50 for PGE2 production [2]: > 100 µg/mL | gross signs of toxicity [8]: no gross signs of toxicity | paw diameter (measured with calipers) [8]: significantly decreased | decrease in paw swelling, injected paw [8]: 19% | decrease in paw swelling, noninjected paw [8]: 43% | Inhibition of PLA2 from human PMN, IC50 [3]: 57 µg/mL | C6-NBD-PC hydrolysed ([9]; HMS 0.5 mg/ml (control 1.42 ± 0.19)): 0.37 ± 0.04 nmole/mg cell protein-hour | C6-NBD-PC hydrolysed ([9]; HMS 1.5 mg/ml (control 1.42 ± 0.19)): 0.11 ± 0.07 nmole/mg cell protein-hour | % Inhibition of PLA2-oedema, 3 hours [6, 11]: 63% | % Inhibition of PLA2-oedema, 5 hours [6, 11]: 80% | % Inhibition of PLA2-oedema, 3 hours [6, 12]: 36% | % Inhibition of PLA2-oedema, 5 hours [6, 12]: 62%

alginic acid phosphatidylethanolamine [ALE]
Aggregation (% of control) ([1]; Epinephrine 0.8 μg/ml, PLI 0.7 mg/ml): 9 % of control

alginic acid phosphatidylserine [ALS]
Aggregation (% of control) [1, 13]: 5 % of control

carboxymethylcellulose phosphatidylethanolamine [CME]
Aggregation (% of control) [1, 13]: 0 % of control

carboxymethylcellulosephosphatidylserine [CMS]
Aggregation (% of control) [1, 13]: 0 % of control | IC50 for PGE2 production [2]: 100 µg/mL and > 100 µg/mL | gross signs of toxicity [8]: no gross signs of toxicity | paw diameter (measured with calipers) [8]: significantly decreased | decrease in paw swelling, injected paw [8]: 30% | decrease in paw swelling, noninjected paw [8]: 51% | Inhibition of PLA2 from human PMN, IC50 [3]: 40 µg/mL | % Inhibition of prostacyclin production [4]: 61% | 6-keto-PFG1α PROD. [4]: 78.7 ± 6.8 PG/10^-6 Cells | % Inhibition of PLA2-oedema, 3 hours [6, 11]: 51% | % Inhibition of PLA2-oedema, 5 hours [6, 11]: 54% | % Inhibition of PLA2-oedema, 3 hours [6, 12]: 15% | % Inhibition of PLA2-oedema, 5 hours [6, 12]: 29%
